From ChEMBL document CHEMBL1201862, “PubChem BioAssay data set” (2004)
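All cell lines were grown in 96-well plates and treated with compound for 48 hours. Abbreviation: GI50, concentration required for 50% inhibition of growth.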 Activity calls are given as the source filed them. Cut-off read from the data, not from the text of the source: active = GI50 up to about 1.1 µM and inactive = higher.

Assays:
Assay in all cases: NCI anticancer screen, dose series, 48 h
[1] = tested on: M14
[2] = tested on: UACC-62
[3] = tested on: MCF7
[4] = tested on: RXF 631
[5] = tested on: M19-MEL
[6] = tested on: HT-29
[7] = tested on: HOP-18
[8] = tested on: MDA-MB-231
[9] = tested on: A498
[10] = tested on: NCI-H226
[11] = tested on: HOP-92
[12] = tested on: ACHN
[13] = tested on: DU-145
[14] = tested on: SN12C
[15] = tested on: SR
[16] = tested on: KM12
[17] = tested on: LXFL 529
[18] = tested on: SF-295
[19] = tested on: PC-3
[20] = tested on: NCI-H460
[21] = tested on: SK-MEL-5
[22] = tested on: MDA-N
[23] = tested on: K562
[24] = tested on: DMS-273
[25] = tested on: SNB-19
[26] = tested on: OVCAR-4
[27] = tested on: SK-MEL-2
[28] = tested on: SK-OV-3
[29] = tested on: OVCAR-5
[30] = tested on: T47D
[31] = tested on: UACC-257
[32] = tested on: HCC 2998
[33] = tested on: DMS-114
[34] = tested on: CAKI-1
[35] = tested on: KM-20L2
[36] = tested on: A549
[37] = tested on: MDA-MB-435
[38] = tested on: DLD-1
[39] = tested on: SF-539
[40] = tested on: Malme-3M
[41] = tested on: SNB-75
[42] = tested on: 786-0
[43] = tested on: HCT-116
[44] = tested on: HOP-62
[45] = tested on: XF498
[46] = tested on: LOX IMVI
[47] = tested on: SNB-78
[48] = tested on: RXF 393
[49] = tested on: HCT-15
[50] = tested on: OVCAR-3
[51] = tested on: U-251
[52] = tested on: NCI-H522
[53] = tested on: NCI-H23
[54] = tested on: UO-31
[55] = tested on: BT-549
[56] = tested on: RPMI-8226
[57] = tested on: IGROV-1
[58] = tested on: Hs-578T
[59] = tested on: TK-10

Compound: C[N+](C)(C)CC1CCC(C[N+](C)(C)C)C1=O (centres undefined)
- GI50 [1]: 1.72 µM (inactive)
- GI50 [2]: 8.53 µM (inactive)
- GI50 [3]: 1.75 µM (inactive)
- GI50 [4]: 5.47 µM (inactive)
- GI50 [5]: 1.94 µM (inactive)
- GI50 [6]: 1.56 µM (inactive)
- GI50 [7]: 0.794 µM (active)
- GI50 [8]: 19.6 µM (inactive)
- GI50 [9]: 6.78 µM (inactive)
- GI50 [10]: 12.9 µM (inactive)
- GI50 [11]: 0.92 µM (active)
- GI50 [12]: 1.82 µM (inactive)
- GI50 [13]: 15.5 µM (inactive)
- GI50 [14]: 4.12 µM (inactive)
- GI50 [15]: 0.4 µM (active)
- GI50 [16]: 4.65 µM (inactive)
- GI50 [17]: 0.555 µM (active)
- GI50 [18]: 20.5 µM (inactive)
- GI50 [19]: 17.2 µM (inactive)
- GI50 [20]: 24.3 µM (inactive)
- GI50 [21]: 9.02 µM (inactive)
- GI50 [22]: 4.94 µM (inactive)
- GI50 [23]: 0.359 µM (active)
- GI50 [24]: 2.16 µM (inactive)
- GI50 [25]: 17.9 µM (inactive)
- GI50 [26]: 2.38 µM (inactive)
- GI50 [27]: 14.9 µM (inactive)
- GI50 [28]: 23.4 µM (inactive)
- GI50 [29]: 7.28 µM (inactive)
- GI50 [30]: 3.42 µM (inactive)
- GI50 [31]: 2.92 µM (inactive)
- GI50 [32]: 8.63 µM (inactive)
- GI50 [33]: 2.34 µM (inactive)
- GI50 [34]: 0.668 µM (active)
- GI50 [35]: 3.18 µM (inactive)
- GI50 [36]: 18.7 µM (inactive)
- GI50 [37]: 16.3 µM (inactive)
- GI50 [38]: 2.2 µM (inactive)
- GI50 [39]: 7.74 µM (inactive)
- GI50 [40]: 1.08 µM (active)
- GI50 [41]: 1.95 µM (inactive)
- GI50 [42]: 1.91 µM (inactive)
- GI50 [43]: 1.71 µM (inactive)
- GI50 [44]: 19.2 µM (inactive)
- GI50 [45]: 2.03 µM (inactive)
- GI50 [46]: 4.84 µM (inactive)
- GI50 [47]: 2.4 µM (inactive)
- GI50 [48]: 1.91 µM (inactive)
- GI50 [49]: 1.78 µM
- GI50 [50]: 2.39 µM (inactive)
- GI50 [51]: 9.12 µM (inactive)
- GI50 [52]: 0.2 µM (active)
- GI50 [53]: 4.22 µM (inactive)
- GI50 [54]: 4.34 µM (inactive)
- GI50 [55]: 17 µM (inactive)
- GI50 [56]: 0.328 µM (active)
- GI50 [57]: 7.94 µM (inactive)
- GI50 [58]: 38.6 µM (inactive)
- GI50 [59]: 3.3 µM (inactive)
